According to patent US8178104B2, “Methods and compositions for targeting gC1qR/p32” (Sanford-Burnham Medical Research Institute, priority 2006, dated 2012):
Bridge positions count the residues as written; N and C are the ends. Ends that are not written are not given here. * marks the point of attachment. FITC = O=C1OC2(c3ccc(O)cc3Oc3cc(O)ccc32)c2ccc(NC(=S)*)cc21

Assays:
MDA-MB-435 cells = experiment: FACS analysis of FITC-peptide binding to MDA-MB-435 cells; format: cell-based; details: 10 μM, 1 hour at 4° C.; compared with Lyp-1
Method: MDA-MB-435 cells were transiently transfected with gC1qR/p32-specific or control siRNAs. […] The amount of fluorescence in living cells was analyzed by FACS. Cells incubated in the absence of peptide served as FITC negative control. Compared to control siRNA transfected cells, down-regulation of gC1qR/p32 expression (in the presence of gC1qR/p32 siRNA) caused a shift in the peak of Lyp-1 fluorescence but not control peptide fluorescence.
Cultured cells were detached with cell enzyme-free dissociation buffer (Gibco/Invitrogen) and collected in PBS containing 1% BSA (PBSB). Single cells suspensions from tumors were obtained as indicated above. For FACS staining, 2.5×10^5 cells were resuspended in 100 μl of PBSB and incubated with polyclonal anti-full-length gC1qR/p32 or rabbit IgG (20 μg/ml) in PBSB for 30 min at 4° C. The cells were washed in PBSB and stained with goat anti rabbit Alexa 488 (2.5 μg/ml) for 30 min at 4° C. For FACS analysis of bound FITC-peptides, cultured cells were detached as above and incubated with 10 μM of FITC-peptides in 10% FCS/DMEM for 1 hour at 4° C. After washes with PBSB, the cells were resuspended in PBS containing 2 μg/ml of propidium iodide (PI, Molecular Probes/Invitrogen) to distinguish between live and dead cells, and 10,000 cells per sample were analyzed using a BD Biosciences FACSort.

C8161 melanoma cells = details: cited from earlier work
HL-60 leukemia cells = details: cited from earlier work
tumors = details: cited from earlier work
gC1qR/p32 = molecular target: T1, gC1qR/p32 (Homo sapiens, UniProt Q07021); experiment: Pull-down assay with biotinylated peptides from tumor cell extracts; format: binding; details: extracts of cultured tumor cells (MDA-MB-435); anti-gC1qR/p32 immunoblot
T1 construct: the specific band represents the mature form of a protein known as gC1qR/p32; endogenous in cells; host or cells: MDA-MB-435 cultured cells; MDA-MB-435 tumor xenografts
T1 sequence (Q07021 74-282): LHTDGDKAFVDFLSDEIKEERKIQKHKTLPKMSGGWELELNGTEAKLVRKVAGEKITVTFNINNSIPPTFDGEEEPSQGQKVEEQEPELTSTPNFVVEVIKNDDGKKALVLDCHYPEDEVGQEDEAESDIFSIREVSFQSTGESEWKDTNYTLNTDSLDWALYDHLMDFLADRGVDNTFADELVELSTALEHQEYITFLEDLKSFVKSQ
Method: Pull down assays were performed with biotinylated Lyp-1 peptide (SEQ ID NO:1, CGNKRTRGC) from protein extracts derived from MDA-MB-435 cultured cells or MDA-MB-435 tumor xenografts. A tumor homing peptide, CREKA (SEQ ID NO:3), and a peptide CRV which resembles Lyp-1 in its amino acid composition and cyclic structure (SEQ ID NO:4, CRVRTRSGC), were used as negative controls. The Lyp-1 bound proteins were visualized using silver staining and immunoblotting. […] The arrow indicates a specific 33 kD band, which was identified as gC1qR/p32 by mass spectrometry. […] The antibody recognizes a band of 33 kD in the total proteins lysate and in the Lyp-1 pull down. Anti gC1qR/p32 reactive bands are not detected in the pull downs from both control peptides. […] The monoclonal antibody against gC1qR/p32 recognized a 75 kD and a 33 kD band only in the Lyp-1 peptide pull down.
To identify the receptor for the LyP-1 peptide, biotin-labeled LyP-1 and control peptides were incubated with extracts of MDA-MB-435 cells, a cell line that binds and internalizes LyP-1 (Laakkonen et al., 2004). LyP-1 bound a specific band in the 30 kDa range that was not seen in the controls (FIG. 3A, left panel), which were the pentapeptide CREKA (SEQ ID NO: 3) (Simberg et al., 2007) and the nonapeptide CRVRTRSGC (SEQ ID NO: 4), which resembles LyP-1 in its amino acid composition and cyclic structure. […] LyP-1 affinity isolation also yielded gC1qR/p32 from cultured BT549 breast carcinoma cells and from extracts of MDA-MB-435 xenograft tumors.
Streptavidin agarose beads (Sigma-Aldrich) were resuspended in 2 volumes of phosphate buffer saline (PBS) and conjugated to 3 μg/10 μl beads of biotynilated peptides for 2 h on ice. After incubation, beads were washed three times with PBS/50 mM n-octyl-β-D glucopyranoside (Calbiochem; San Diego, Calif.) to remove free peptides. […] Bands that appeared in the LyP-1 but not control peptide pull down were cut out, digested with trypsin, and the resulting peptides were analyzed by matrix-assisted laser desorption ionization-time of flight (MALDI-TOF) mass spectrometry. […]

MDA-MB-435 = details: cited from earlier work
BT549 = details: cited from earlier work
[1] = molecular target: T2, purified gC1qR/p32 protein (Homo sapiens, UniProt Q07021); experiment: In vitro phage binding to purified gC1qR/p32 coated on microtiter wells; details: 5 μg/ml coated protein, 16 h at 37° C., plaque assay
T2 sequence (Q07021 74-282): T1 sequence (Q07021 74-282)
Method: Purified gC1qR/p32 or BSA, as a control, were coated onto microtiter wells (5 μg/ml) and targeted for binding with 10^8 pfu of insertless phage, Lyp-1 phage, or control phage carrying another tumor homing peptide (CREKA, SEQ ID NO:3). After 16 hours of incubation at 37° C., bound phages were eluted and quantified by plaque assay. The results are show in FIG. 2(a). Results are expressed as fold of Lyp-1 and CREKA (SEQ ID NO:3) phages recovered over insertless phage and are representative of five independent experiments.
Microtiter wells (Costar, Corning, N.Y.) were coated overnight at 4° C. with 5 μg/ml of either purified gC1qR/p32 or BSA (Sigma-Aldrich) in 100 μl/well of carbonate buffer (15 mM sodium carbonate, 35 mM sodium bicarbonate). Wells were washed three times with TBS and blocked with Pierce Superblock buffer according to the manufactures instructions. 10^8 pfu of LyP-1 and control phages were added to the wells in 100 μl/well of TBS/0.05% tween-20 and incubated for 16 h at 37° C. After 6 washes in TBS/0.05% tween-20, bound phages were eluted with 200 μl of Tris-HCl 1M pH 7.5/0.5% SDS for 30 min and subsequently quantified by plaque assay. […] Cells were washed 5 times with PBS/1% BSA and bound phages were quantified by plaque assay.

mitochondrial membranes = details: 10 μM; cited from earlier work
MDA-MB-435 tumors = experiment: Tumor localization of intravenously injected FITC-LyP-1 peptide; format: in vivo, mice; details: circulation 1 hour; p32 immunohistochemical staining
From the text: Tumor localization of gC1qR/p32 and Lyp-1 peptide were visualized. gC1qR/p32, lymphatic or blood vessels, podoplanin and Meca32/CD31 were stained with fluorescently-labeled antibodies in MDA-MB-435 tumor xenografts. Polyclonal anti-gC1qR/p32 antibody recognizes cell clusters that lack blood vessels but contain lymphatics, or cells lining vessel-like structures positive for Podoplanin but not CD31 or Meca32. Fluorescein-conjugated Lyp-1 peptide was i.v. injected into mice bearing MDA-MB-435 tumors and allowed to circulate for 1 hour before removal of the tumor for gC1qR/p32 immunohistochemical analysis. Lyp-1 peptide localizes in gC1qR/p32-positive patches within the tumor.

ARALPSQRSR [control peptide with same overall charge as LyP-1]
binding of FITC conjugated peptide to cells (MDA-MB-435 cells): less binding ability

CGNKRTRGC (disulfide 1-9 (inferred)) [LyP-1, tumor homing cyclic nonapeptide]
LyP-1 binding (C8161 melanoma cells): not to significantly bind | LyP-1 binding (HL-60 leukemia cells): not to significantly bind | TUNEL-positive lesions in tumors (tumors; in vivo peptide treatment): induced TUNEL-positive lesions | tumor growth (tumors; systemic administration): inhibits tumor growth | gC1qR/p32 bound/pulled down by biotinylated peptide (gC1qR/p32): specifically bound | LyP-1 binding (MDA-MB-435): strong | LyP-1 binding (BT549): strong

CNRRTKAGC (displayed on phage) [LyP-2]
phage binding to purified gC1qR/p32 relative to insertless control phage [1]: did not significantly bind

CREKA [tumor homing pentapeptide used as negative control, as peptide and on phage]
gC1qR/p32 bound/pulled down by biotinylated peptide (gC1qR/p32): not detected | phage binding to purified gC1qR/p32 relative to insertless control phage [1]: essentially no interaction

CRVRTRSGC (disulfide 1-9 (inferred)) [control nonapeptide resembling Lyp-1 in amino acid composition and cyclic structure]
gC1qR/p32 bound/pulled down by biotinylated peptide (gC1qR/p32): not detected

D(KLAKLAK)2
mitochondrial swelling (mitochondrial membranes): marked mitochondrial swelling

FITC-LyP-1: fluorescein-conjugated LyP-1 peptide ({FITC}-CGNKRTRGC; disulfide 1-9 (inferred))
tumor localization of intravenously injected peptide (MDA-MB-435 tumors): accumulated in tumor areas with high expression levels of gC1qR/p32
